Structures can show the parent of a compound that is named as a salt.
Assays:
Experiment in all cases: Assay B: in vitro antibacterial activity, broth microdilution MIC (NCCLS)
Type in all cases: cell-based
[1] = test system: Staphylococcus aureus ATCC 6538P; conditions: Table 2, Assay B, cation-adjusted Mueller Hinton broth, 35° C., 16 to 20 hr; code A = Staphylococcus aureus ATCC 6538P; unit assumed
Description: (§1) Assay B. Determination of Biological Activity In Vitro Assay of Antibacterial Activity
(§2) Representative compounds of the invention were assayed in vitro for antibacterial activity. The susceptibilities of aerobic, nonfastidious species were determined visually by broth microdilution as described by the National Committee for Clinical Laboratory Standards (NCCLS) (National Committee for Clinical Laboratory Standards. 1997. Methods for dilution antimicrobial susceptibility tests for bacteria that grow aerobically. Approved standard M7-A4. National Committee for Clinical Laboratory Standards. Wayne, Pa.). In brief, serial two-fold dilutions of test compounds were made in cation-adjusted Mueller Hinton broth at two-times the final concentration. Inocula were prepared from overnight cultures of test strains. Tests were inoculated with a suspension of bacteria in Mueller Hinton broth to achieve a final density of approximately 5×10^5 CFU/mL. Tests were incubated at 35° C. in ambient air for 16 to 20 hr. Minimum Inhibitory Concentrations (MICs) were determined as the lowest drug concentration completely inhibiting growth. Ciprofloxacin was included as a control. For testing S. pneumoniae, the cation-adjusted Mueller Hinton broth was supplemented with 3% lysed horse blood and the incubation period was extended to 20 to 24 hr. For testing H. influenzae, the cation-adjusted Mueller Hinton broth was supplemented with 5 g/L yeast extract, […] and 15 mg/L NAD and incubation was extended to 20 to 24 hr..

[2] = test system: Enterococcus faecalis PIU 1967; conditions: Table 2, Assay B, cation-adjusted Mueller Hinton broth, 35° C., 16 to 20 hr; code B = Enterococcus faecalis PIU 1967; unit assumed
Description: as §1, §2

[3] = test system: Haemophilus influenzae DILL AMP R; conditions: Table 2, Assay B, Mueller Hinton broth with yeast extract, hematin and NAD, 20 to 24 hr; code E = Haemophilus influenzae DILL AMP R; unit assumed
Description: as §1, §2

[4] = test system: Escherichia coli JUHL; conditions: Table 2, Assay B, cation-adjusted Mueller Hinton broth, 35° C., 16 to 20 hr; code D = Escherichia coli JUHL; unit assumed
Description: as §1, §2

[5] = test system: Streptococcus pneumoniae ATCC 6303; conditions: Table 2, Assay B, Mueller Hinton broth with 3% lysed horse blood, 20 to 24 hr; code F = Streptococcus pneumoniae ATCC 6303; unit assumed
Description: as §1, §2

SMILES | Antibacterial Activity (MIC's), A [1] | Antibacterial Activity (MIC's), B [2] | Antibacterial Activity (MIC's), E [3] | Antibacterial Activity (MIC's), D [4] | Antibacterial Activity (MIC's), F [5]
COc1c(-c2cc3c(s2)CCCC3=NN(C)C(N)=S)ccc2c(=O)c(C(=O)O)cn(C3CC3)c12 [Example 105, 7-((4E/Z)-4-[(aminocarbothioyl)(methyl)hydrazono)-4,5,6,7-tetrahydro-1-benzothien-2-yl)-1-cyclopropyl-8-methoxy-4-oxo-1 4-dihydro-3-quinolinecarboxylic acid] | 0.03 µg/mL | 0.25 µg/mL | 0.06 µg/mL | 1 µg/mL | 0.03 µg/mL
COc1c(-c2cc3c(s2)CCC(C)C3=O)ccc2c(=O)c(C(=O)O)cn(C3CC3)c12 (centres unmarked) [Example 106, 1-cyclopropyl-8-methoxy-7-(5-methyl-4-oxo-4,5,6,7-tetrahydro-1-benzothien-2-yl)-4-oxo-1,4-dihydro-3-quinolinecarboxylic acid] | 0.08 µg/mL | 0.125 µg/mL | 0.06 µg/mL | 0.5 µg/mL | 0.125 µg/mL
CNC1CCCc2sc(-c3ccc4c(=O)c(C(=O)O)cn(C5CC5)c4c3OC(F)F)cc21 (centres unmarked) [Example 107, 1-cyclopropyl-8-(difluoromethoxy)-7-(4-(methylamino)-4,5,6,7-tetrahydro-1-benzothien-2-yl)-4-oxo-1,4-dihydro-3-quinolinecarboxylic acid hydrochloride] | 0.06 µg/mL | 0.5 µg/mL | 0.06 µg/mL | 0.25 µg/mL | 0.06 µg/mL
CNC1CCCc2sc(-c3nc4c(cc3F)c(=O)c(C(=O)O)cn4C3CC3)cc21 (centres unmarked) [Example 108, 1-cyclopropyl-6-fluoro-7-(4-(methylamino)-4,5,6,7-tetrahydro-1-benzothien-2-yl)-4-oxo-1,4-dihydro[1,8]naphthyridine-3-carboxylic acid hydrochloride] | 0.015 µg/mL | 1 µg/mL | 0.008 µg/mL | 0.03 µg/mL | 0.25 µg/mL
COc1c(-c2cc3c(s2)S(=O)(=O)N(C)CC3N)ccc2c(=O)c(C(=O)O)cn(C3CC3)c12.Cl (centres unmarked) [Example 109, 7-(4-amino-2-methyl-1,1-dioxido-3,4-dihydro-2H-thieno[3,2-e][1,2]thiazin-6-yl)-1-cyclopropyl-8-methoxy-4-oxo-1,4-dihydro-3-quinolinecarboxylic acid hydrochloride] | 0.125 µg/mL | 2 µg/mL | 0.125 µg/mL | 8 µg/mL | 0.5 µg/mL
COc1c(-c2cc3c(s2)CCCC3CO)ccc2c(=O)c(C(=O)O)cn(C3CC3)c12 (centres unmarked) [Example 110, 1-cyclopropyl-7-(4-(hydroxymethyl)-4,5,6,7-tetrahydro-1-benzothien-2-yl)-8-methoxy-4-oxo-1,4-dihydro-3-quinolinecarboxylic acid] | 0.004 µg/mL | 0.06 µg/mL | 0.015 µg/mL | 0.25 µg/mL | 0.06 µg/mL
CNC1CCc2sc(-c3ccc4c(=O)c(C(=O)O)cn(C5CC5)c4c3OC)cc2C1.Cl (centres unmarked) [Example 125, 1-cyclopropyl-8-methoxy-7-(5-(methylamino)-4,5,6,7-tetrahydro-1-benzothien-2-yl)-4-oxo-1,4-dihydro-3-quinolinecarboxylic acid hydrochloride] | 0.004 µg/mL | 0.25 µg/mL | 0.03 µg/mL | 0.125 µg/mL | 0.03 µg/mL
COc1c(-c2cc3c(s2)CCCC3CN2CCOCC2)ccc2c(=O)c(C(=O)O)cn(C3CC3)c12 (centres unmarked) [Example 126, 1-cyclopropyl-8-methoxy-7-(4-(4-morpholinylmethyl)-4,5,6,7-tetrahydro-1-benzothien-2-yl)-4-oxo-1,4-dihydro-3-quinolinecarboxylic acid] | 0.004 µg/mL | 0.5 µg/mL | 1 µg/mL | 16 µg/mL | 0.5 µg/mL
COc1c(-c2cc3c(s2)CCCC3CN(C)C)ccc2c(=O)c(C(=O)O)cn(C3CC3)c12 (centres unmarked) [Example 127, 1-cyclopropyl-7-(4-((dimethylamino)methyl)-4,5,6,7-tetrahydro-1-benzothien-2-yl)-8-methoxy-4-oxo-1,4-dihydro-3-quinolinecarboxylic acid] | 0.5 µg/mL | 0.25 µg/mL | 0.125 µg/mL | 1 µg/mL | 0.5 µg/mL
COc1c(-c2cc3c(s2)CCCC3NC2CCN(C)CC2)ccc2c(=O)c(C(=O)O)cn(C3CC3)c12.Cl.Cl (centres unmarked) [Example 133, 1-cyclopropyl-8-methoxy-7-(4-((1-methyl-4-piperidinyl)amino)-4,5,6,7-tetrahydro-1-benzothien-2-yl)-4-oxo-1,4-dihydro-3-quinolinecarboxylic acid dihydrochloride] | 0.5 µg/mL | 1 µg/mL | 1 µg/mL | 1 µg/mL | 1 µg/mL
COc1c(-c2cc3c(s2)S(=O)(=O)CCC3O)ccc2c(=O)c(C(=O)O)cn(C3CC3)c12 (centres unmarked) [Example 135, 1-cyclopropyl-7-(4-hydroxy-7,7-dioxido-5,6-dihydro-4H-thieno[2,3-b]thiopyran-2-yl)-8-methoxy-4-oxo-1,4-dihydro-3-quinolinecarboxylic acid] | 1 µg/mL | 1 µg/mL | 1 µg/mL | 16 µg/mL | 4 µg/mL
COc1c(-c2cc3c(s2)S(=O)(=O)CCC3N)ccc2c(=O)c(C(=O)O)cn(C3CC3)c12.Cl (centres unmarked) [Example 143, 7-(4-amino-7,7-dioxido-5,6-dihydro-4H-thieno[2,3-b]thiopyran-2-yl)-1-cyclopropyl-8-methoxy-4-oxo-1,4-dihydro-3-quinolinecarboxylic acid hydrochloride] | 0.125 µg/mL | 0.5 µg/mL | 0.125 µg/mL | 64 µg/mL | 0.5 µg/mL
COc1c(-c2cc3c(s2)CCCC3NCCO)ccc2c(=O)c(C(=O)O)cn(C3CC3)c12.Cl (centres unmarked) [Example 155, 1-cyclopropyl-7-(4-((2-hydroxyethyl)amino)-4,5,6,7-tetrahydro-1-benzothien-2-yl)-8-methoxy-4-oxo-1,4-dihydro-3-ouinolinecarboxylic acid hydrochloride] | 0.03 µg/mL | 0.125 µg/mL | 0.06 µg/mL | 0.5 µg/mL | 0.03 µg/mL
Cl.NC1CCCc2sc(-c3nc4c(cc3F)c(=O)c(C(=O)O)cn4C3CC3)cc21 (centres unmarked) [Example 156, 7-(4-amino-4,5,6,7-tetrahydro-1-benzothien-2-yl)-1-cyclopropyl-6-fluoro-4-oxo-1,4-dihydro[1,8]naphthyridine-3-carboxylic acid hydrochloride] | 0.03 µg/mL | 0.125 µg/mL | 0.015 µg/mL | 0.03 µg/mL | 0.06 µg/mL
COc1c(-c2cc3c(s2)CCC/C3=N\OCc2cccnc2)ccc2c(=O)c(C(=O)O)cn(C3CC3)c12 [Example 182, 1-cyclopropyl-8-methoxy-4-oxo-7-((4E)-4-((3-pyridinylmethoxy)imino)-4,5,6,7-tetrahydro-1-benzothien-2-yl)-1,4-dihydro-3-quinolinecarboxylic acid] | 0.03 µg/mL | 0.25 µg/mL | 0.125 µg/mL | 1 µg/mL | 0.25 µg/mL
COc1c(-c2cc3c(s2)CCC(C)C3O)ccc2c(=O)c(C(=O)O)cn(C3CC3)c12 (centres unmarked) [Example 185, 1-cyclopropyl-7-(4-hydroxy-5-methyl-4,5,6,7-tetrahydro-1-benzothien-2-yl)-8-methoxy-4-oxo-1,4-dihydro-3-quinolinecarboxylic acid] | 0.015 µg/mL | 0.25 µg/mL | 0.125 µg/mL | 0.5 µg/mL | 0.5 µg/mL
